{"source": "paper PMC7406860", "about": "“Redox Imbalance and Oxidative DNA Damage During Isoniazid Treatment of HIV-Associated Tuberculosis: A Clinical and Translational Pharmacokinetic Study” (Frontiers in Pharmacology, 2020)", "key": {"[1]": {"test": "Clinical parent-metabolite pharmacokinetic study, plasma exposures after oral isoniazid", "assay_type": "in vivo, human (TB patients)", "details": "for AUC(0-t): human", "procedure": "The parent-metabolite clinical pharmacokinetic study was approved by the Institutional Review Board of Rutgers University, Newark (protocol #20170001150). We performed intensive pharmacokinetic sampling for drug and metabolite concentrations in 10 TB patients (4 latent infection patients and 6 active TB patients) treated with isoniazid, in order to identify the relevant metabolite concentrations for subsequent pre-clinical experiments. After an overnight fast, patients were dosed with oral isoniazid (300 mg). A pre-dose blood draw was performed, with additional blood draws at 1, 2, 4, 6, and 8 h after dosing. Following centrifugation, plasma samples were stored at -80C until shipment to Alturas Analytics (Moscow, ID) for analysis. […] Noncompartmental pharmacokinetic analysis was performed to determine area under the concentration-versus-time curve (AUC), extrapolated over a 24-h dosing interval according to the slope defined in the elimination phase."}, "HepG2 cells [2]": {"tested_on": "HepG2 cells", "test": "CometChip imaging of cellular DNA damage", "assay_type": "cell-based, human", "details": "HepG2, 10 µM, 1 week; as compared to isoniazid", "procedure": "(§1) The human liver carcinoma cell line, HepG2, is highly differentiated and is often used to screen the cytotoxicity potential of new chemical entities early in drug development ([Gerets et al., 2012]). HepG2 cells were cultured in Dulbecco’s modified Eagle’s medium (DMEM) supplemented with 10% fetal bovine serum (FBS), 100 U/ml penicillin, 100 μg/ml streptomycin, and 2mM L-glutamine, unless otherwise stated. Cells were continuously incubated at 37°C in a humidified 5% CO2/95% air environment and plated in a 12-well plate at 4x10^5 cells/well, over a duration of 24 h prior to compound exposure. Compound stocks dissolved in water were freshly made each exposure day. Cellular supernatant was replaced with 2 ml of culture media containing 10 µM of compound and left to incubate until 90% confluency was reached. Cell passages were conducted every 3 days under continual exposure to the designated compound for the indicated time period. Cellular supernatant was collected at each passage, clarified, aliquoted, and stored at -80°C for future analysis. Treated cells and supernatants were then examined for markers of cytotoxicity, mitochondrial toxicity, and oxidative DNA damage as described below.\nCells treated for 1 week with 10 µM of compound were plated onto a CometChip (Trevigen) at 2x10^5 cells/ml in a single cell suspension ([Ge et al., 2014]). Cells were incubated on the chip for 60 min at 37°C. The plate was then gently washed with PBS and coated with 1% low melting agarose. After the agarose was solidified by cooling at 4°C, the plate was washed with pre-chilled non-activated alkaline lysis buffer (2.5 M NaCl, […] Na2EDTA, 10mM Tris, pH 10). The chip was lysed overnight at 4°C by submerging the chip in the alkaline lysis buffer containing 1% Triton-X. The plate was then washed with PBS and placed in an electrophoresis chamber filled with pre-chilled alkaline electrophoresis buffer (2mM Na2 EDTA, 300 mM NaOH). Following a 40 min incubation at 4°C to allow for alkaline unwinding, electrophoresis was carried out at 80 volts for 30 min at 4°C. […]"}, "HepG2 cells [3]": {"tested_on": "HepG2 cells", "test": "Immunofluorescence for γ-H2AX", "assay_type": "cell-based, human", "details": "HepG2, 10 µM, 1-week exposure period; compared among the four compounds", "procedure": "as §1\nH2Ax is a core histone protein found in the nucleosome, and the phosphorylation of H2Ax is a marker of DNA damage caused by ROS. […]"}, "HepG2 cells [4]": {"tested_on": "HepG2 cells", "test": "Mitochondrial membrane integrity (TMRM)", "assay_type": "cell-based, human", "details": "HepG2, 10 µM, 28 days of exposure", "procedure": "as §1, with “Treated cells and supernatants were then examined for markers of cytotoxicity, mitochondrial toxicity, and oxidative DNA damage as described below.” left out\nTo assess mitochondrial membrane integrity, black 96-well polystyrene clear bottom plates were coated with 50 µg/ml of poly-d-lysine for 1 h at 37°C. […] Following three washes with PBS, fluorescent intensity at 488nmEx/570nmEm was measured on a Synergy H1 Hybrid Multi-Mode Reader (BioTek)."}, "HepG2 cells [5]": {"tested_on": "HepG2 cells", "test": "8-OHdG in cellular supernatant (competition ELISA)", "assay_type": "cell-based, human", "details": "HepG2, 10 µM, 28 days exposure", "procedure": "as §1\nDetermination of 8-OHdG content in cellular supernatant was assed using an in-house competition ELISA. […] Absorbance at 405 nm was then measured on a Synergy H1 Hybrid Multi-Mode Reader (BioTek)."}, "HepG2 cells [6]": {"tested_on": "HepG2 cells", "test": "Free thiol availability assay (ThiolTracker Violet), glutathione depletion", "assay_type": "cell-based, human", "details": "HepG2, 10 µM, 28-day exposure period", "procedure": "as §1, with “Cellular supernatant was collected at each passage, clarified, aliquoted, and stored at -80°C for future analysis. Treated cells and supernatants were then examined for markers of cytotoxicity, mitochondrial toxicity, and oxidative DNA damage as described below.” left out\nBy serving as targets of ROS, thiols provide the cellular defense system against oxidative stress. […] Cellular glutathione depletion was quantified in a free thiol availability assay ([Mandavilli and Janes, 2010]). […] Following a 30 min incubation at 37°C, cells were washed three times with D-PBS +C/M. Fluorescent intensity at 404nmEx/526nmEm was measured on a Synergy H1 Hybrid Multi-Mode Reader (BioTek)."}, "HepG2 cells [7]": {"tested_on": "HepG2 cells", "test": "ATP production (Mitochondrial ToxGlo Assay)", "assay_type": "cell-based, human", "details": "HepG2, 10 µM, 28 days of treatment", "procedure": "The human liver carcinoma cell line, HepG2, is highly differentiated and is often used to screen the cytotoxicity potential of new chemical entities early in drug development ([Gerets et al., 2012]). HepG2 cells were cultured in Dulbecco’s modified Eagle’s medium (DMEM) supplemented with 10% fetal bovine serum (FBS), 100 U/ml penicillin, 100 μg/ml streptomycin, and 2mM L-glutamine, unless otherwise stated. Cells were continuously incubated at 37°C in a humidified 5% CO2/95% air environment and plated in a 12-well plate at 4x10^5 cells/well, over a duration of 24 h prior to compound exposure. Compound stocks dissolved in water were freshly made each exposure day. […]\nMitochondrial toxicity analysis was assayed using the Mitochondrial ToxGlo Assay (Promega, Madison, WI) following the manufacturer’s instructions. […] Following a 24-h incubation with compound, cytotoxicity was evaluated by the addition of a fluorogenic peptide substrate, bis-AAF-R110, to the cell supernatant for 30 min at 37°C. […] After the cells were allowed to incubate for 30 min at 37°C, fluorescence intensity was measured at 485nmEx/525nmEm. […] Cell lysis mixture was transferred to a 96-well flat solid white bottom plate and luminescence intensity was measured. Assays of fluorescence and luminescence activity were performed with a Synergy H1 Hybrid Multi-Mode Reader (BioTek, Winooski, VT)."}, "[8]": {"test": "Linear regression of urine oxidative DNA damage (8-OHdG) on isoniazid pharmacokinetic exposures in HIV/TB patients", "assay_type": "in vivo, human (HIV/TB patients, Botswana)", "text": "We conducted a prospective cohort study of isoniazid pharmacokinetics among HIV/TB patients at 22 public clinics and Princess Marina Hospital in Gaborone, Botswana. The study population has been previously described ([Vinnard et al., 2017]). Eligibility criteria included citizens of Botswana, HIV infected adults (21 years of age or older) naïve to ART therapy, and newly diagnosed with pulmonary TB initiated on standard first-line TB regimens at weight-based dosing bands recommended in accordance with WHO guidelines. The study visit occurred between 5 and 28 days after initiation of first-line TB therapy that included isoniazid, prior to initiation of ART therapy.\nAfter an overnight fast, the anti-TB drugs were directly administered. Blood samples (10 ml) were drawn at 0, 0.3, 0.9, 2.2, 4.5, and 8 h post-dosing, based on optimal sampling theory to estimate isoniazid pharmacokinetic parameters. Plasma isoniazid concentrations were measured with liquid chromatography-tandem mass spectrometry (LC-MS/MS) methods as previously described. The peak plasma concentration (Cmax) was obtained directly from the concentration-versus-time data), model-predicted isoniazid concentrations were used to estimate the area under the concentration-versus-time curve during a 24-h interval (AUC0-24). A spot urine sample (approximately 50 ml) was collected 4 h following anti-TB drug dosing and frozen at -80C until analysis. We measured urinary concentrations of 8-OHdG, a marker of oxidative DNA damage that is stable in cryopreserved urine samples, normalized to urine creatinine. The DNA Damage Competitive ELISA kit (ThermoFisher Scientific) was performed using a 1:4 dilution of urine-to-assay buffer. The manufacturer’s instructions were followed with one modification to the protocol. Antigen binding was performed overnight at 4°C with shaking in lieu of a 2-h incubation at room temperature. Each assay was performed in triplicate. Optical absorption was assessed using a Synergy H1 Hybrid Multimode Reader (BioTek). […]"}, "HepG2 cells [9]": {"tested_on": "HepG2 cells", "test": "Cytotoxicity (bis-AAF-R110 substrate, Mitochondrial ToxGlo Assay), long-term exposure", "assay_type": "cell-based, human", "details": "HepG2, 10 µM, up to 28 days exposure"}, "[10]": {"details": "10 isoniazid-treated patients, oral isoniazid 300 mg, noncompartmental, extrapolated over 24-h dosing interval"}}, "note": "Read-outs that look alike come from different tables or passages of the source."}
{"smiles": "CC(=O)NN", "note": "[Acetylhydrazine]", "values": [{"measurement": "Observed median (range) of plasma AUC0-24", "setting": "[1]; [10]", "result": "66.6 (43.2, 198.0) uM*hr"}, {"measurement": "DNA damage by CometChip microscopy", "setting": "HepG2 cells [2]", "result": "greater levels of DNA damage"}]}
{"smiles": "CC(=O)NNC(=O)c1ccncc1", "note": "[Acetylisoniazid]", "values": [{"measurement": "AUC(0-t)", "setting": "[1]; in vivo, po, 300 mg", "result": 158, "unit": "µM·h"}, {"measurement": "DNA damage by CometChip microscopy", "setting": "HepG2 cells [2]", "result": "greater levels of DNA damage"}]}
{"smiles": "NN", "note": "[Hydrazine]", "values": [{"measurement": "Observed median (range) of plasma AUC0-24", "setting": "[1]; [10]", "result": "14.5 (3.0, 27.8) uM*hr"}, {"measurement": "γ-H2AX levels (double-stranded DNA breaks)", "setting": "HepG2 cells [3]", "result": "greatest"}, {"measurement": "TMRM depletion (mitochondrial membrane integrity)", "setting": "HepG2 cells [4]", "result": "greatest depletion"}, {"measurement": "8-OhDG levels in cell supernatant", "setting": "HepG2 cells [5]", "result": "highest increase"}, {"measurement": "DNA damage by CometChip microscopy", "setting": "HepG2 cells [2]", "result": "greater levels of DNA damage"}, {"measurement": "Thiol depletion (free thiol availability)", "setting": "HepG2 cells [6]", "result": "greatest"}, {"measurement": "Cellular ATP production impairment", "setting": "HepG2 cells [7]", "result": "greatest impairment"}]}
{"smiles": "NNC(=O)c1ccncc1", "note": "[Isoniazid]", "values": [{"measurement": "Unadjusted regression coefficient (95% CI), isoniazid log AUC0-24 vs urine oxidative DNA damage", "setting": "[8]; HIV/TB patients, first-line TB therapy", "result": "0.474 (-0.272, 1.221)"}, {"measurement": "Unadjusted regression coefficient (95% CI), isoniazid Cmax (mg/L) vs urine oxidative DNA damage", "setting": "[8]; HIV/TB patients, first-line TB therapy, urine 8-OHdG normalized to creatinine", "result": "0.153 (-0.060, 0.366)"}, {"measurement": "Adjusted regression coefficient (95% CI), isoniazid Cmax (mg/L) vs urine oxidative DNA damage", "setting": "[8]; adjusted for body weight, creatinine clearance, GSTA2 genotype", "result": "0.241 (0.020, 0.462)"}, {"measurement": "AUC(0-t)", "setting": "[1]; plasma, 10 isoniazid-treated patients, oral isoniazid 300 mg, noncompartmental, extrapolated over 24-h dosing interval, read-out: Observed median (range) of plasma AUC0-24", "result": 60.5, "unit": "µM·h"}, {"measurement": "Overall cytotoxicity", "setting": "HepG2 cells [9]", "result": "no appreciable cytotoxicity"}]}
